# From paper PMC8509831 (International Journal of Molecular Sciences, 2021)
# Like-named read-outs stand apart in the source and are kept apart here. Marks after values point to notes of the source that are not given here.
# Assays:
# LOX-5 = test: 5-LOX enzyme inhibitory assay (polarographic, Clark oxygen electrode); format: biochemical, potato; conditions: mean ± SD, n = 3
# Procedure: The IC50 was determined for the studied compounds and reference standards. […] Furthermore, 5-LOX enzyme was extracted from potato tubers as described previously. […] The enzyme activity was expressed as moles of oxygen consumed per min/mg protein, as 5-LOX adds oxygen to the substrate, implying that the rate of decrease of oxygen in the reaction mixture was intrinsic to the measurement of enzyme activity. The results were expressed as IC50 (μg/mL) for the sample and reference compounds in triplicate.
# COX-1 = target: T1, COX-1 (Ovis aries, UniProt P05979); test: COX-1 enzyme inhibitory assay (COX inhibitor screening kit); format: biochemical
# T1 construct: purchased Cayman Chemicals 560131
# T1 sequence (P05979 25-600): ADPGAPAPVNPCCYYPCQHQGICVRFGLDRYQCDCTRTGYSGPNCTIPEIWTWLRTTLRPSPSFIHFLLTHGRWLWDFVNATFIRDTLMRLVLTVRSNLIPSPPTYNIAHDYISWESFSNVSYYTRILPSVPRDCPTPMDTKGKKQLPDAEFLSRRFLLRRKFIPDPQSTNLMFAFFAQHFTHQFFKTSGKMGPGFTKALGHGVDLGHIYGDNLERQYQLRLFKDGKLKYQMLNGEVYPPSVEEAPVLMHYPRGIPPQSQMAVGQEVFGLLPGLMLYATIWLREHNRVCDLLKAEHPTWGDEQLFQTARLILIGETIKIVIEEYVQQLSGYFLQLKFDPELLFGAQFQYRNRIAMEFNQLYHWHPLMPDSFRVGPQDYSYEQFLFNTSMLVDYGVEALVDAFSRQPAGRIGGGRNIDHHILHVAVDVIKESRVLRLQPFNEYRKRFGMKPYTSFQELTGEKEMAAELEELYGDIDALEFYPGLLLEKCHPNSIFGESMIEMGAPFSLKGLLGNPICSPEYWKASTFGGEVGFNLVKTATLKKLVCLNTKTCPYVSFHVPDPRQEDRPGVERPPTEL
# COX-2 = target: T2, COX-2 (Homo sapiens, UniProt P35354); test: COX-2 enzyme inhibitory assay (COX inhibitor screening kit); format: biochemical; conditions: mean ± SD, n = 3; read-out: Enzyme Inhibitory Effect IC50 COX-2 (converted)
# T2 construct: purchased Cayman Chemicals 560131
# T2 sequence (P35354 18-604): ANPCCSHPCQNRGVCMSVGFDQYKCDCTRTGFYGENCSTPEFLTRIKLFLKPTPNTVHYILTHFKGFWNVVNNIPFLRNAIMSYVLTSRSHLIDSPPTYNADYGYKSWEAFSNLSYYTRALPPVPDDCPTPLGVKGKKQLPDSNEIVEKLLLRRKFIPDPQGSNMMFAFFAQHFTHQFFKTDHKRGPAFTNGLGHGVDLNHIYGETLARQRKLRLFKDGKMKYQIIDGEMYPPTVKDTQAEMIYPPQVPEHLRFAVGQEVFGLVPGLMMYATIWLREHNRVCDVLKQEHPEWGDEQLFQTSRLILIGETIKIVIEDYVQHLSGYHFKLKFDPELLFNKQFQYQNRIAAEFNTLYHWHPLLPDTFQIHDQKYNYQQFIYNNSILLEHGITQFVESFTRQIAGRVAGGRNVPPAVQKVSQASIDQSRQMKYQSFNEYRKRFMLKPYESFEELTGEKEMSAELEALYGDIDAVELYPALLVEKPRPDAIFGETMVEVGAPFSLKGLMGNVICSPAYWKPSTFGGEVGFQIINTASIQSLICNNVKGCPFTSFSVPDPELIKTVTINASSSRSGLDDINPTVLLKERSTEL
# HeLa cells [1] = test: Annexin V-FITC/PI apoptosis assay by flow cytometry; format: cell-based, human
# Procedure: Annexin V-FITC/propidium iodide (PI) assay was performed as per the manufacturer's instructions (Sino Biological, Beijing, China). Briefly, HeLa cells (2 × 10^5 cells/well) in 6-well culture plates were treated with […] (30 μg/mL) or with DMSO as a vehicle control for 24 and 48 h. Subsequently, floating as well as adherent cells were collected and washed with PBS. The cells were centrifuged at 400× g for 5 min at RT and resuspended in binding buffer containing Annexin V-FITC, along with PI. In each experiment, 1 × 10^4 cells were analyzed for annexin V-FITC/PI staining after incubation for 20 min at RT in the dark.
# HeLa cells [2] = test: Intracellular ROS production (DCFDA fluorescence); format: cell-based, human; conditions: 30 μg/mL
# Procedure: Cellular ROS production was analyzed as previously described with minor modifications to the original methodology. Briefly, cells were seeded at a density of 1.5 × 10^4/well in a black, clear bottom 96-well plate. The following day, cells were treated with […] (30 μg/mL) or DMSO as a vehicle control for 12-48 h. Forty-five minutes prior to completion of the treatment, 100 μL of 2× H2DCFDA dilution was overlayed in each well and incubated in 5% CO2 with DCFDA as well as the compounds for 30 min at 37 °C. The fluorescence in each well was assessed on a microplate reader at the end point in the presence of compounds and DCFDA with Ex/Em = 485/535 nm wavelengths.
# HeLa cells [3] = test: WST cell viability assay; format: cell-based, human; conditions: for Cell Viability (%): HeLa, 40 μg/mL, listed as Q3G
# Procedure: (§1) The viability of HeLa cells treated with […] (0-100 μg/mL, concentrations) was examined for 24-72 h using a colorimetric WST assay. Briefly, HeLa cells were cultured in a clear-bottom 96-well plate at a density of 9 × 10^3 cells/well in MEM supplemented with 10% FBS and 1% penicillin-streptomycin in a 5% CO2 incubator and incubated for 24 h at 37 °C. The […] stock solution was prepared in DMSO and stored at -20 °C. Subsequently, the cells were exposed to various concentrations of […] (0-100 μg/mL) over a period of 24-72 h. The cell proliferation reagent WST-1 solution (10 μL/well) was added to the plates, followed by incubation in 5% CO2 for 2 h at 37 °C in the dark. Thereafter, the plates were shaken thoroughly for 1 min on a shaker at RT, and the absorbance of the reporter substrate was measured at 450 nm and 600 nm (reference wavelength 650 nm) using a microplate reader coupled with the Gen5 software (BioTek, Winooski, VT, USA).
# WST cell viability assay = format: cell-based, human; conditions: human, HeLa cells, HeLa
# Procedure: as §1
# CDK2 = test: Western blot, CDK2 expression; format: cell-based, human; conditions: HeLa, 30 μg/mL, 12-48 h
# Procedure: (§2) HeLa cells (1.5 × 10^6 cells/well) were seeded in six-well plates and cultured in MEM supplemented with 10% FBS for 24 h. Subsequently, the cells were treated with the indicated amounts of Q3G or DMSO as a vehicle control for 12–48 h. Following this, the cells were collected, and total lysates from treated cells were prepared in RIPA buffer for 15 min. Protein concentration was determined using a Bio-Rad protein assay kit with BSA [63]. […] Membranes were treated with PBS containing 0.05% Tween 20 and 5% nonfat dry milk to block nonspecific binding at 15–25 °C and were incubated overnight at 4 °C with the following specific primary antibodies: caspase-9/-3, Bax, Bcl-2, Bid, CDK2, and MuD. β-Actin was used as an invariant control for equal loading of total proteins. After incubation with the primary antibody, the membranes were incubated with the appropriate secondary antibodies conjugated to horseradish peroxidase. Finally, immunoreactive bands were visualized using an enhanced chemiluminescence substrate (Bio-Rad).
# MuD = test: Western blot, MuD expression; format: cell-based, human; conditions: HeLa, 30 μg/mL, 12, 24, and 48 h
# Procedure: as §2
# Bax = test: Western blot, Bax expression; format: cell-based, human; conditions: HeLa, 30 μg/mL, 12, 24, and 48 h
# Procedure: as §2
# Bcl-2 = test: Western blot, Bcl-2 expression; format: cell-based, human; conditions: HeLa, 30 μg/mL, 12, 24, and 48 h
# Procedure: as §2
# caspase-9 = test: Western blot, caspase-9 expression; format: cell-based, human; conditions: HeLa, 30 μg/mL, 12, 24, and 48 h
# Procedure: as §2
# HeLa cells [4] = test: Cell cycle analysis by PI flow cytometry; format: cell-based, human; conditions: 30 μg/mL, listed as Q3G
# Procedure: Cell cycle analysis was performed in HeLa cells as previously described. Cells were seeded into six-well plates at a density of 2 × 10^5 cells per well and treated with […] (30 μg/mL) for 12-48 h. Thereafter, the cells were harvested, washed with PBS, and fixed at 4 °C for 1 h in a 70% PBS-ethanol solution. Cells were subsequently washed twice with PBS, and 50 μL of a 100 μg/mL stock of DNase-free RNase was added to ensure that only DNA, not RNA, was stained. Cell pellets were stained with a fluorescent probe PI (50 μg/mL) and incubated at RT for 30 min, and then analyzed using a NovoCyte 1000 benchtop flow cytometer (ACEA Biosciences, San Diego, CA, USA).
# [5] = mean ± SD, n = 3, read-out: Enzyme Inhibitory Effect IC50 COX-1 (converted)
smiles,measurement,setting,value
O=C(O)/C=C/c1ccc(O)c(O)c1 [Caffeic acid],Enzyme Inhibitory Effect IC50 LOX-5,LOX-5,12.26 ± 0.91 ^g μg/mL
same,IC50,COX-1; [5],113 µM
O=C(/C=C/c1ccc(O)c(O)c1)O[C@@H]1C[C@](O)(C(=O)O)C[C@@H](O)[C@H]1O [Chlorogenic acid],Enzyme Inhibitory Effect IC50 LOX-5,LOX-5,9.98 ± 0.94 ^e μg/mL
same,IC50,COX-2,75.3 µM
same,IC50,COX-1; [5],39.7 µM
O=C(O)/C=C/c1ccc(O)cc1 [Coumaric acid],Enzyme Inhibitory Effect IC50 LOX-5,LOX-5,7.96 ± 0.76 ^d μg/mL
same,IC50,COX-2,93.2 µM
same,IC50,COX-1; [5],55.4 µM
Oc1cc(O)c2c(c1)O[C@H](c1ccc(O)c(O)c1)[C@H](O)C2 [Epicatechin],Enzyme Inhibitory Effect IC50 LOX-5,LOX-5,10.09 ± 1.03 ^f μg/mL
same,IC50,COX-1,63 µM
O=C(CCc1ccc(O)cc1)c1c(O)cc(O)cc1O [Phloretin],Enzyme Inhibitory Effect IC50 LOX-5,LOX-5,16.86 ± 1.22 ^h μg/mL
same,IC50,COX-2,121 µM
same,IC50,COX-1; [5],91.7 µM
O=C(CCc1ccc(O)cc1)c1c(O)cc(O)cc1O[C@@H]1O[C@H](CO)[C@@H](O)[C@H](O)[C@H]1O [Phloridzin],Enzyme Inhibitory Effect IC50 LOX-5,LOX-5,18.98 ± 0.85 ^i μg/mL
same,IC50,COX-2,83 µM
same,IC50,COX-1; [5],65.6 µM
"O=c1c(O[C@@H]2O[C@H](CO)[C@@H](O)[C@H](O)[C@H]2O)c(-c2ccc(O)c(O)c2)oc2cc(O)cc(O)c12 [Quercetin-3-glucoside, quercetin 3-β-D-glucoside]",cells in early apoptosis,"HeLa cells [1]; 30 μg/mL, 48 h",Approximately 20%
same,cells in the late apoptosis phase,"HeLa cells [1]; 30 μg/mL, 48 h",~35%
same,difference in apoptosis (early and late phase) compared with the control cells,HeLa cells [1]; 24 h of treatment,No significant difference
same,increase in the number of apoptotic cells (Annexin V-positive cells),HeLa cells [1]; after 48 h compared to after 24 h of treatment,16–22%
same,ROS level higher than the control group,HeLa cells [2]; 12 h,approximately 6 fold
same,ROS level higher than the control group,HeLa cells [2]; 24 h,~12 fold
same,Enzyme Inhibitory Effect IC50 LOX-5,LOX-5,2.31 ± 0.32 ^b μg/mL
same,concentrations with significant growth inhibition,"HeLa cells [3]; HeLa cells, 48 h",higher than 10 µg/mL
same,Cell Viability (%),HeLa cells [3]; 24 h,83.30 ± 4.05%
same,Cell Viability (%),HeLa cells [3]; 48 h,36.27 ± 1.38%
same,Cell Viability (%),HeLa cells [3]; 72 h,17.97 ± 1.42%
same,"viability at 48 h, 0.1 μg/mL","WST cell viability assay; 0.1 μg/mL, 48 h",114.98 ± 0.05%
same,"viability at 48 h, 1 μg/mL","WST cell viability assay; 1 μg/mL, 48 h",103.3 ± 0.12%
same,"viability at 48 h, 10 μg/mL","WST cell viability assay; 10 μg/mL, 48 h",116.1 ± 0.01%
same,"viability at 24 h, 40 μg/mL","WST cell viability assay; 40 μg/mL, 24 h",83%
same,"viability at 48 h, 40 μg/mL","WST cell viability assay; 40 μg/mL, 48 h",36%
same,"viability at 72 h, 40 μg/mL","WST cell viability assay; 40 μg/mL, 72 h",18%
same,"viability at 48 h, 50 μg/mL","WST cell viability assay; 50 μg/mL, 48 h",29.6%
same,"viability at 48 h, 100 μg/mL","WST cell viability assay; 100 μg/mL, 48 h",41.81 ± 0.01%
same,protein expression of CDK2,CDK2,decreasing
same,MuD expression,MuD,markedly reduced
same,level of Bax,Bax,increase
same,level of anti-apoptotic protein Bcl-2,Bcl-2,reduced
same,"expression of the initiator caspase, caspase-9",caspase-9,reduced
same,cells in S phase,HeLa cells [4]; 24 h,~56%
same,cells in S phase,HeLa cells [4]; 48 h,~63%
same,IC50,COX-1,7.8 µM
O=c1c(O)c(-c2ccc(O)c(O)c2)oc2cc(O)cc(O)c12 [Quercetin],IC50,COX-2,37.4 µM
same,IC50,COX-1; [5],20.2 µM
